Measurements taken from patent US6833377B2, “Composition and method for potentiating drugs” (priority 2001, dated 2004).
“And” between values parts separate entries of the source, which are not always exact repeats. Equal entries are not always repeated.

Assays:
Type in all cases: in vivo, rats
[1] = test system: MK-toxicity; assay: MK-toxicity (behavioral toxicity caused by MK-801); details: haloperidol alone, at this dose only ataxia eliminated, MK-toxicity only partially eliminated
Method: (§1) Antipsychotic effect of neuroleptics was studied using the model of behavioral toxicity “MK-toxicity” caused by a blocker of NMDA receptors MK-801 (Lapin T. P., Rogawski M. A. Behav. Brain Res. (1995) 70(2):145-151) and a model of phenaminic stereotypy caused by phenamine (Kuczenski R., Schmidt D, Leith N. Brain Res. (1977), 126(1):117-129).
(§2) The minimal effective dose of the neuroleptic haloperidol necessary to completely prevent the development of “MK-toxicity” (MK-801 at a dose of 0.4 mg/kg IM) and phenaminic stereotypy (phenamine at a dose of 10 mg/kg IM) in 80% of the rats was calculated. To estimate the potentiation of the antipsychotic effect of haloperidol, the minimal effective dose of haloperidol in compositions, which completely prevents the development of MK-toxicity and phenaminic stereotypy in rats, was determined.

[2] = test system: phenaminic stereotypy; assay: Phenaminic stereotypy (antipsychotic effect of haloperidol); details: haloperidol alone, phenamine 10 mg/kg IM
Method: as §1, §2

[3] = test system: catalepsy caused by haloperidol; assay: Haloperidol catalepsy (inclined grid); details: for Minimal effective dose of memantine eliminating catalepsy (immobilization time on an inclined grid below 40 seconds), haloperidol 1 mg/kg / Minimal effective dose of memantine eliminating catalepsy (immobilization time on an inclined grid below 40 seconds), haloperidol 3 mg/kg: memantine alone; for Minimal effective dose of memantine eliminating catalepsy (immobilization time on an inclined grid below 40 seconds), haloperidol 3 mg/kg: catalepsy only partially eliminated at this dose (immobilization time 60-70 seconds)
Method: Haloperidol catalepsy is a test for selecting anti-parkinson agents [Campbell A., Baldessarini R. J. Cremens M. C. Neuropharmacology (1988), 27(11):1197-9; Ossowska K. J. Neural. Transm. Park. Dis. Dement. Sect. (1994) 8(1-2):39-71]. Catalepsy degree was estimated by the immobilization time (in sec) of a rat placed on a coarse-mesh grid at an angle of 45° during a 3-minute exposition [Campbell A., Baldessarini R. J., Cremens M. C. Neuropharmacology (1988) 27(11):1197-9 ] 30, 60, 90 and 120 minutes after haloperidol administration. Maximal catalepsy was attained in 40-60 minutes after haloperidol administration (immobilization time on the grid was 140-180 sec) and lasted from 2 to 6 hours depending on the dose of haloperidol (1 or 3 mg/kg). The minimal effective dose of the anti-parkinson agent memantine causing a maximal anticataleptic effect (immobilization time on an inclined grid less than 40 sec) 1 hour after haloperidol administration at a dose of 1 and 3 mg/kg was calculated.
To estimate the potentiation effect of memantine, the minimal effective dose of memantine in the composition causing a maximal anticataleptic effect was determined.

[4] = test system: reflex of tail flicking; assay: Tail-flick test (analgesic effect); details: drug alone
Method: For these studies, solutions of the composition of the invention were used, which. were prepared using distilled water immediately before administration. The solutions were administered either orally (IG), by a rigid metal probe into the cardiac section of the stomach at a total amount of 0.8 ml, or intramuscularly (IM) at an amount of 0.2 ml, 30 min before testing.
The analgesic effect of the components was estimated by an extension of the latent period of the reflex of tail flicking in the “tail-flick” test [Woolf C. J., Barret G. D., Mitchel D., Myers R. A. (1977) Eur. J. Pharmacol. 45(3);311-314] and of the reflex of hind leg flicking in the hyperalgesia test [Coderre T. J., Melzack R. Brain Res. (1987) 404(1-2):95-106].
For the “tail-flick” test, hyperalgesic rats were selected (latent period of tail flicking on placing into water with a temperature of 51° C. was 3-4 sec).

[5] = test system: phenaminic stereotypy; assay: Potentiation of phenaminic stereotypy (psychostimulant effect of phenamine); details: phenamine + distilled water
Method: The potentiation of the effect of psychostimulants was studied using the model of phenaminic stereotypy [Kuczenski R., Schmidt D., Leith N. Brain Res. (1977), 126(1):117-29]. Phenamine at a dose of 10 mg/kg IM, or 20 mg/kg IG, causes a marked behavioral stereotypy. To estimate the potentiation effect of phenamine, a phenamine dose in the IM or IG introduced composition was determined, which causes the same stereotypy as phenamine alone at a dose of 10 mg/kg, IM or 20 mg/kg, IG.

## O=C(CCCN1CCC(O)(c2ccc(Cl)cc2)CC1)c1ccc(F)cc1 [Haloperidol, haloperidol]
[1]; IG
  Minimal effective dose of haloperidol completely preventing MK-toxicity (MK-801 0.4 mg/kg IM): > 1 mg/kg
[1]; IG, listed as haloperidol
  Minimal effective dose of haloperidol completely preventing MK-toxicity (MK-801 0.4 mg/kg IM): > 1 mg/kg
[1]; IM
  Minimal effective dose of haloperidol completely preventing MK-toxicity (MK-801 0.4 mg/kg IM): > 1 mg/kg
[1]; IM, listed as haloperidol
  Minimal effective dose of haloperidol completely preventing MK-toxicity (MK-801 0.4 mg/kg IM): > 1 mg/kg
[2]; IG
  Minimal effective dose of haloperidol completely preventing phenaminic stereotypy in 80% of rats: 0.18 ± 0.022 mg/kg
[2]; IG, listed as haloperidol
  Minimal effective dose of haloperidol completely preventing phenaminic stereotypy in 80% of rats: 0.18 mg/kg
[2]; IM
  Minimal effective dose of haloperidol completely preventing phenaminic stereotypy in 80% of rats: 0.15 ± 0.017 mg/kg
[2]; IM, listed as haloperidol
  Minimal effective dose of haloperidol completely preventing phenaminic stereotypy in 80% of rats: 0.15 mg/kg

## CC12CC3CC(C)(C1)CC(N)(C3)C2 [Memantine, memantine]
[3]; IG
  Minimal effective dose of memantine eliminating catalepsy (immobilization time on an inclined grid below 40 seconds), haloperidol 1 mg/kg: 11.5 mg/kg and 11.5 ± 1.2 mg/kg
  Minimal effective dose of memantine eliminating catalepsy (immobilization time on an inclined grid below 40 seconds), haloperidol 3 mg/kg: > 16.0 mg/kg
[3]; IG, listed as memantine
  Minimal effective dose of memantine eliminating catalepsy (immobilization time on an inclined grid below 40 seconds), haloperidol 3 mg/kg: > 16 mg/kg
[3]; IM
  Minimal effective dose of memantine eliminating catalepsy (immobilization time on an inclined grid below 40 seconds), haloperidol 1 mg/kg: 7.5 ± 0.7 mg/kg
  Minimal effective dose of memantine eliminating catalepsy (immobilization time on an inclined grid below 40 seconds), haloperidol 3 mg/kg: > 15.0 mg/kg
[3]; IM, listed as memantine
  Minimal effective dose of memantine eliminating catalepsy (immobilization time on an inclined grid below 40 seconds), haloperidol 3 mg/kg: > 15 mg/kg
  Minimal effective dose of memantine eliminating catalepsy (immobilization time on an inclined grid below 40 seconds), haloperidol 1 mg/kg: 7.5 mg/kg
[3]; memantine 15 mg/kg IM
  Immobilization time of rats on an inclined grid, catalepsy caused by haloperidol 3 mg/kg: 60 to 70 s
[3]; memantine 16 mg/kg IG
  Immobilization time of rats on an inclined grid, catalepsy caused by haloperidol 3 mg/kg: 60 to 70 s

## CN1CC[C@]23c4c5ccc(O)c4O[C@H]2[C@@H](O)C=C[C@H]3[C@H]1C5 [Morphine, morphine]
[4]; IG
  Minimal effective dose of the analgesic causing maximal analgesia in tail-flick test (latent period of tail flicking reflex more than 30 sec): 3 ± 0.35 mg/kg
[4]; IG, listed as morphine
  Minimal effective dose of the analgesic causing maximal analgesia in tail-flick test (latent period of tail flicking reflex more than 30 sec): 3 mg/kg
[4]; IM
  Minimal effective dose of the analgesic causing maximal analgesia in tail-flick test (latent period of tail flicking reflex more than 30 sec): 3.0 ± 0.37 mg/kg
[4]; IM, listed as morphine
  Minimal effective dose of the analgesic causing maximal analgesia in tail-flick test (latent period of tail flicking reflex more than 30 sec): 3 mg/kg

## CC(N)Cc1ccccc1 (stereo not shown) [Phenamine, phenamine]
[5]; IG
  Dose of phenamine causing the same behavioral stereotypy as phenamine 10 mg/kg IM: 20.2 ± 2.3 mg/kg
[5]; IG, listed as phenamine
  Dose of phenamine causing the same behavioral stereotypy as phenamine 10 mg/kg IM: 20 mg/kg
[5]; IM
  Dose of phenamine causing the same behavioral stereotypy as phenamine 10 mg/kg IM: 10.0 ± 1.1 mg/kg
[5]; IM, listed as phenamine
  Dose of phenamine causing the same behavioral stereotypy as phenamine 10 mg/kg IM: 10 mg/kg
